Experimental data published in patent US20160010086A1, “OLIGOMERIC COMPOUNDS AND EXCIPIENTS” (ISIS PHARMACEUTICALS, INC., priority 2009, published 2016).

Key:
PTEN mRNA = assay: Antisense activity (pharmacodynamics) of ISIS 116847 in mouse liver; assay type: in vivo, mice
Method: Tissues are homogenized in guanidine isothyocyanate buffer (4 M guanidine isothiocyanate, 25 mM EDTA, 1 M β-mercaptoethanol, 50 mM Tris-HCl, pH 6) immediately following sacrifice. RNA is extracted using RNeasy columns (Qiagen) according to manufacturer's protocol. RNA is eluted from the columns with water. RNA samples are analyzed by fluorescence-based quantitative RT-PCR using an Applied Biosystems 7700 sequence detector. Levels of target RNAs as well as those of cyclophilin A, a housekeeping gene, are determined. Target RNA levels were normalized to cyclophilin levels for each RNA sample. Primers used for determination of PTEN RNA level are as follows: FP 5′ […] 3′ (SEQ ID NO: 3), RP 5′ […] 3′ (SEQ ID NO: 4), and PR 5′ 6FAM-[…]-TAMRA 3′(SEQ ID NO 5). Primers used for determination of cyclophilin A RNA level are as follows: FP 5′ TCGCCGCTTGCTGCA 3′(SEQ ID NO: 6), RP 5′ ATCGGCCGTGATGTCGA 3′(SEQ ID NO: 7), and PR 5′ 6FAM-[…]-TAMRA 3′(SEQ ID NO: 8).

[1] = mouse, in vivo

## 5′-CTGCT agcctctgga TTTGA-3′ (CTGCTAGCCTCTGGATTTGA; chemistry not given here) [ISIS 116847]
PTEN mRNA; co-administered with a nonsense oligonucleotide
  activity of the active antisense oligonucleotide: enhanced
PTEN mRNA; slower infusion, lowest doses
  pharmacodynamics with increased liver drug concentration: did not provide improved pharmacodynamics
[1]
  uptake in whole liver: favored at lower plasma concentrations
